The values that follow come from ChEMBL document CHEMBL4396887, “Five-Membered N-Heterocyclic Scaffolds as Novel Amino Bioisosteres at γ-Aminobutyric Acid (GABA) Type A Receptors and GABA Transporters” (J Med Chem, 2019).

Usually Ki stands for a dissociation constant, usually derived from enzyme kinetics or from competition with a known ligand. Low values mean tighter binding, high ones weaker binding. Usually pKa stands for the negative logarithm of the acid dissociation constant. Low readings indicate a group that gives up its proton readily, high ones a group that holds its proton tightly. A word on the IC50: it is the concentration needed to halve the response being measured.

Series [1] concerns the target T1, Gamma-aminobutyric acid receptor subunit alpha-5/beta-2/gamma-2 (Homo sapiens, UniProt P18507+P31644+P47870).
T1 sequence (P47870 whole entry): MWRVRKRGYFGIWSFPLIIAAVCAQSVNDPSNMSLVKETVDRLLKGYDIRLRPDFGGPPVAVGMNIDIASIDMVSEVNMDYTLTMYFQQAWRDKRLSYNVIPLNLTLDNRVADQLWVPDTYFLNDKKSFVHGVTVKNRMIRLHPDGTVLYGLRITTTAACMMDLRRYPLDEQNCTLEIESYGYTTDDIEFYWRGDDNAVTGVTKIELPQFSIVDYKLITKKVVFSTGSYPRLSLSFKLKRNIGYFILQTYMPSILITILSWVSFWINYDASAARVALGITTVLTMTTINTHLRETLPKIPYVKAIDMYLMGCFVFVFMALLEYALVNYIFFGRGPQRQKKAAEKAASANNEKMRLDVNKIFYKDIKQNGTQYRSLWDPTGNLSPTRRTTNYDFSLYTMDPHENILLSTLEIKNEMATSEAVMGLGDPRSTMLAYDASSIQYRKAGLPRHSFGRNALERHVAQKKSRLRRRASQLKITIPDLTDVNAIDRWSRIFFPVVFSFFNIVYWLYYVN
T1 sequence (P18507 whole entry): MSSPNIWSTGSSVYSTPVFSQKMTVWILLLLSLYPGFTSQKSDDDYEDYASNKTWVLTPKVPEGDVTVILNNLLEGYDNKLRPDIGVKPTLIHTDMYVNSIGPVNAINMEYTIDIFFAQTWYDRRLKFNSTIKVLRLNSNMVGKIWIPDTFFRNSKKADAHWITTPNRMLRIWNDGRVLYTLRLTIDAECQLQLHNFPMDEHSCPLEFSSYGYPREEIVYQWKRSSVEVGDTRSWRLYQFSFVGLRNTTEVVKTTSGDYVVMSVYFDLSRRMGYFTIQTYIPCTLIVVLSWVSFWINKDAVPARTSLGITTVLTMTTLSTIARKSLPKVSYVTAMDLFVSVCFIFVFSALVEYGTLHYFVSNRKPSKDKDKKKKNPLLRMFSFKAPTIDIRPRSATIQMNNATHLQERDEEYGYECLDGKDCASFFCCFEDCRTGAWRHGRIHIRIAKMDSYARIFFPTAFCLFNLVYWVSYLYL
T1 sequence (P31644 whole entry): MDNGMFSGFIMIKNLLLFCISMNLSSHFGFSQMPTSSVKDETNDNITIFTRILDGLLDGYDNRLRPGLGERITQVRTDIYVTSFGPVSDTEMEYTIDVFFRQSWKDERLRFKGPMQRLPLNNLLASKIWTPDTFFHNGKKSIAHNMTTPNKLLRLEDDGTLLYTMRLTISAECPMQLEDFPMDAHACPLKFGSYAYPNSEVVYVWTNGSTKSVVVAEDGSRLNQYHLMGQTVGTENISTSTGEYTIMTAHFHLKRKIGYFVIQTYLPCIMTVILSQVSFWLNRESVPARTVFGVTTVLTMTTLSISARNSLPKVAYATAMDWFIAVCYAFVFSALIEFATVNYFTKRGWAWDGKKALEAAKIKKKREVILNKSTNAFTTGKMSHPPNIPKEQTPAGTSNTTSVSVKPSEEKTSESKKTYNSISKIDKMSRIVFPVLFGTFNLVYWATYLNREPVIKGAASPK
The experiment in a line: Agonist activity at recombinant human GABA-A alpha5beta2gamma2S receptor transiently expressed in human tsA201 cells incubated for 30 mins and measured up to 90 secs by FMP dye based FLIPR membrane potential blue assay. The format is cell-based.

The target of series [2] is T2, GABA-A receptor; alpha-1/beta-2/gamma-2 (Homo sapiens) (UniProt P14867+P47870+P18507). The experiment in a line: Agonist activity at recombinant human GABA-A alpha1beta2gamma2S receptor transiently expressed in human tsA201 cells assessed as GABA-induced maximum response incubated for 30 mins and measured up to 90 secs by FMP dye based FLIPR membrane potential blue assay relative to GABA. The format is cell-based.

A short description of series [3]: cells. The series is classed as cell-based. The following applies: Homo sapiens, tsA201, 0.5 h.
The target of series [4] is T3, Gamma-aminobutyric acid receptor subunit rho-1 (Homo sapiens, UniProt P24046). The experiment in a line: Agonist activity at recombinant human GABA-A rho-1 receptor transiently expressed in human tsA201 cells assessed as GABA-induced maximum response incubated for 30 mins and measured up to 90 secs by FMP dye based FLIPR membrane potential blue assay relative to GABA. The format is cell-based.
T3 sequence (P24046 whole entry): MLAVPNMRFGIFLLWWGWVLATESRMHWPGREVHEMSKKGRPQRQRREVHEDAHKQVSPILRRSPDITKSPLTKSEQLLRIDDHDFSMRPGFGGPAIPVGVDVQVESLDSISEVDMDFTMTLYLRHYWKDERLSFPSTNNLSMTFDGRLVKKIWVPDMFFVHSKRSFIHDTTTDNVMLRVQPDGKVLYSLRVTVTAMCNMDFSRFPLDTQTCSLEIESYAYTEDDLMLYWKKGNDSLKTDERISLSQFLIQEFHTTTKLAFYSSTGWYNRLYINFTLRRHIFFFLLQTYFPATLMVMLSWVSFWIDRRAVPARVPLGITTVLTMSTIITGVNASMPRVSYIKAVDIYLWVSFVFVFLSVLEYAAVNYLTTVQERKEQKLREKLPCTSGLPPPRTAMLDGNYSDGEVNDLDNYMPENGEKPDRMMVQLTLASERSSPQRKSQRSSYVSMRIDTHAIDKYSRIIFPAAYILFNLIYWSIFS

Series [5] addresses Gamma-aminobutyric acid receptor subunit alpha-4/beta-2/gamma-2 (Homo sapiens, UniProt P18507+P47870+P48169). Put plainly: (§1) Agonist activity at recombinant human GABA-A alpha4beta2gamma2S receptor transiently expressed in human tsA201 cells incubated for 30 mins and measured up to 90 secs by FMP dye based FLIPR membrane potential blue assay. The series is classed as cell-based. The following applies: read-out: EC50.

Series [6] has as its target GABA-A receptor; anion channel. Put plainly: Displacement of [3H]muscimol from GABA(A) receptor in Sprague-Dawley rat cortical synaptic membranes by liquid scintillation counting.
The target in series [7] is Gamma-aminobutyric acid receptor subunit alpha-5/beta-2/gamma-2 (Homo sapiens) (UniProt P47870+P18507+P31644). Put plainly: Agonist activity at recombinant human GABA-A alpha5beta2gamma2S receptor transiently expressed in human tsA201 cells assessed as GABA-induced maximum response incubated for 30 mins and measured up to 90 secs by FMP dye based FLIPR membrane potential blue assay relative to GABA. The format is cell-based.

For series [8], the target named is T3, Gamma-aminobutyric acid receptor subunit rho-1. Put plainly: Agonist activity at recombinant human GABA-A rho-1 receptor transiently expressed in human tsA201 cells incubated for 30 mins and measured up to 90 secs by FMP dye based FLIPR membrane potential blue assay. The series is classed as cell-based.
Series [9] addresses T4, Gamma-aminobutyric acid receptor subunit alpha-4/beta-2/gamma-2 (Homo sapiens, UniProt P47870+P18507+P48169). Put plainly: Agonist activity at recombinant human GABA-A alpha4beta2gamma2S receptor transiently expressed in human tsA201 cells assessed as GABA-induced maximum response incubated for 30 mins and measured up to 90 secs by FMP dye based FLIPR membrane potential blue assay relative to GABA. The series is classed as cell-based.

Series [10] is filed under the species Homo sapiens. Put plainly: Agonist activity at recombinant human GABA-A alpha3beta2gamma2S receptor transiently expressed in human tsA201 cells assessed as GABA-induced maximum response incubated for 30 mins and measured up to 90 secs by FMP dye based FLIPR membrane potential blue assay relative to GABA. The series is classed as cell-based.
For series [11], the target named is T5, GABA-A receptor; alpha-1/beta-2/gamma-2 (Homo sapiens, UniProt P14867+P18507+P47870).
T5 sequence (P14867 whole entry): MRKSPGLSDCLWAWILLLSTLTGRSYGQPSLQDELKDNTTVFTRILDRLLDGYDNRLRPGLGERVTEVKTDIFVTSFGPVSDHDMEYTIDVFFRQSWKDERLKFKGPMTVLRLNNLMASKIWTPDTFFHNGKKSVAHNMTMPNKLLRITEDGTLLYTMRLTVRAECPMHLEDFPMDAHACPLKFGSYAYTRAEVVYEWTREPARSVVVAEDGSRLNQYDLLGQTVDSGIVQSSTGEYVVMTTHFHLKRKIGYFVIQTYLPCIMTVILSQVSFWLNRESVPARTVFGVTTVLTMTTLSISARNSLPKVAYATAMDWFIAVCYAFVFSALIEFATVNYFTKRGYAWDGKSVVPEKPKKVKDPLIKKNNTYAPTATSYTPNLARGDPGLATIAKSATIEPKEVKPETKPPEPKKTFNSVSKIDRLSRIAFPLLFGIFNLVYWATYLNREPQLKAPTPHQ
T5 sequence (P47870 whole entry): T1 sequence (P47870 whole entry)
T5 sequence (P18507 whole entry): T1 sequence (P18507 whole entry)
Put plainly: (§2) Agonist activity at recombinant human GABA-A alpha1beta2gamma2S receptor transiently expressed in human tsA201 cells incubated for 30 mins and measured up to 90 secs by FMP dye based FLIPR membrane potential blue assay. The format is cell-based.

Series [12] is filed under the species Homo sapiens. The experiment in a line: Agonist activity at recombinant human GABA-A alpha3beta2gamma2S receptor transiently expressed in human tsA201 cells at >= 100 uM incubated for 30 mins and measured up to 90 secs by FMP dye based FLIPR membrane potential blue assay. The series is classed as cell-based.
The target in series [13] is T3, Gamma-aminobutyric acid receptor subunit rho-1. The experiment in a line: Agonist activity at recombinant human GABA-A rho-1 receptor transiently expressed in human tsA201 cells at >= 100 uM incubated for 30 mins and measured up to 90 secs by FMP dye based FLIPR membrane potential blue assay. The format is cell-based.
The species named for series [14] is Homo sapiens.
Series [15] has as its target T4, Gamma-aminobutyric acid receptor subunit alpha-4/beta-2/gamma-2. The series is described as §1. The series is classed as cell-based.
Series [16] shares this target. The experiment in a line: Agonist activity at recombinant human GABA-A alpha4beta2gamma2S receptor transiently expressed in human tsA201 cells at >= 100 uM incubated for 30 mins and measured up to 90 secs by FMP dye based FLIPR membrane potential blue assay. The series is classed as cell-based.
The target in series [17] is T2, GABA-A receptor; alpha-1/beta-2/gamma-2 (Homo sapiens). Put plainly: Agonist activity at recombinant human GABA-A alpha1beta2gamma2S receptor transiently expressed in human tsA201 cells at >= 100 uM incubated for 30 mins and measured up to 90 secs by FMP dye based FLIPR membrane potential blue assay. The format is cell-based.
The nature of series [18]: Ionization constant, pKa2 of the compound at 1 mM by potentiometric titration assay. The series is classed as physicochemical.
For series [19], the target named is T6, GABA-A receptor; alpha-1/beta-2/gamma-2 (Homo sapiens, UniProt P14867+P47870+P18507).
T6 sequence (P14867 whole entry): T5 sequence (P14867 whole entry)
T6 sequence (P47870 whole entry): T1 sequence (P47870 whole entry)
T6 sequence (P18507 whole entry): T1 sequence (P18507 whole entry)
The series is described as §2. The format is cell-based.

For series [20], the target named is T2, GABA-A receptor; alpha-1/beta-2/gamma-2 (Homo sapiens). Described as §2. The series is classed as cell-based.
Series [21] concerns the target T4, Gamma-aminobutyric acid receptor subunit alpha-4/beta-2/gamma-2. Put plainly: Agonist activity at recombinant human GABA-A alpha4beta2gamma2S receptor transiently expressed in human tsA201 cells at >= 300 uM incubated for 30 mins and measured up to 90 secs by FMP dye based FLIPR membrane potential blue assay. The series is classed as cell-based.
In series [22] the target is T3, Gamma-aminobutyric acid receptor subunit rho-1. The experiment in a line: Agonist activity at recombinant human GABA-A rho-1 receptor transiently expressed in human tsA201 cells at 300 uM incubated for 30 mins and measured up to 90 secs by FMP dye based FLIPR membrane potential blue assay. The series is classed as cell-based.
Series [23] shares this target. Put plainly: Antagonist activity at recombinant human GABA-A rho-1 receptor transiently expressed in human tsA201 cells incubated for 30 mins and measured up to 90 secs by FMP dye based FLIPR membrane potential blue assay. The series is classed as cell-based.

The source made the active and inactive calls. The calls are words filed in the database; no cut-off is given here.

Sequence of Gamma-aminobutyric acid receptor subunit alpha-4/beta-2/gamma-2 (Homo sapiens, UniProt P18507+P47870+P48169) (P48169 whole entry, one chain of several): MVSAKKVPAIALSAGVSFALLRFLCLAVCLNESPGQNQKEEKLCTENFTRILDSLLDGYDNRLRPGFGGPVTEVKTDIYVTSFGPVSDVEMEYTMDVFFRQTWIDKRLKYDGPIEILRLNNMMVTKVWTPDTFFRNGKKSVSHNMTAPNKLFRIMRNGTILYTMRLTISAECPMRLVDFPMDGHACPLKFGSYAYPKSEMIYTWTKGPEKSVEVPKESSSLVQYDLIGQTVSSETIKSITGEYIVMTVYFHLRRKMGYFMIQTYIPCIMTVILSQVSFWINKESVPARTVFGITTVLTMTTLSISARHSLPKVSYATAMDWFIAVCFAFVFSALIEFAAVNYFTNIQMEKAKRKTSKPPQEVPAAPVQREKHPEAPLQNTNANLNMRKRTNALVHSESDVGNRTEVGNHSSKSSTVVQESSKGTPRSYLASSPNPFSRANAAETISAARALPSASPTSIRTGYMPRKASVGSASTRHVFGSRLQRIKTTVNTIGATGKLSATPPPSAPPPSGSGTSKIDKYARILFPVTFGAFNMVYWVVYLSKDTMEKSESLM
T4 sequence (P48169 whole entry, one chain of several): as above

As to `NC1=N[C@@H](CC(=O)O)CS1`, the EC50 in series [1] is 0.56 µM; in [3] (read-out: EC50), 2.4 µM; in [3] (read-out: pEC50 (converted)), 2.34 µM; in [5], 8.6 µM; in series [8] (read-out: EC50), 3.7 µM; in [11] it was 12 µM. The Rmax in series [2] was 65%; in series [4], 34%; in series [7], 103%; in series [9] it was 53%; in series [10], 102%. The compound further came in with a Ki in [6] of 0.36 µM.

As for `Nc1nc(CC(=O)O)cs1`, the outcome in series [12], in [13], in [16] and in [17] was Active. Also, the EC50 is 24 µM in series [1], “Not Active” in series [15], “Not Active” in series [8] and “Not Active” in [19]. For the same compound, the Rmax entry in [2], in series [4], in [9] and in [10] was “inactive” throughout. Moreover, the pEC50 entry in series [14], in [15], in [8] and in [20] was “inactive” in each case. The same compound came in with a Ki in [6] of 32 µM. Moreover, the Rmax in series [7] amounted to 85%. Further, the pKa at 1000 µM in series [18] is 6.08.

As to `O=C(O)Cc1c[nH]cn1` [IMIDAZOLE ACETIC ACID], the EC50 in series [1] is 1.8 µM; in series [3] (read-out: EC50), 8.1 µM; in series [3] (read-out: pEC50 (converted)) it was 8.13 µM; in [5] it was 19 µM; in series [8] (read-out: EC50), 4.6 µM. Further, the Rmax worked out at 46% in series [2]; 46% in series [4]; 92% in series [7]; 81% in [9]; 89% in series [10]. In addition, the result in series [13] was Active. The same compound yielded a pKa at 1000 µM in series [18] of 7.13.

For `CC1(CC(=O)O)CSC(N)=N1` (centres undefined), the EC50 in series [1] was 4.5 µM; in series [3] (read-out: EC50), 26 µM; in series [3] (read-out: pEC50 (converted)) it was 25.7 µM; in series [15] it was “Not Active”; in series [19], “Not Active”. The Rmax entry in [2] and in series [9] was “inactive” in each case. The result in series [21] and in [17] was Active. The pEC50 result in series [15] and in series [20] was “inactive” in each case. Also, the result in series [22] was inactive. The compound further displayed a Ki in series [6] of 2.2 µM. In [23], the IC50 turned out to be 300 µM. Besides, the Rmax in [7] was 92%; in series [10] it was 80%.
